Reference: patent US7375058B2, “Herbicidal mixtures based on 3-phenyluracils” (priority 2002, dated 2008)

Key:
BIDPI = assay: Greenhouse post-emergence herbicidal action against BIDPI; assay type: in vivo, Bidens pilosa
Text: (§1) For the post-emergence treatment, the test plants were first grown to a height of 3 to 20 cm, depending on the plant habit, and only then treated. Here, the herbicidal compositions were suspended or emulsified in water as distribution medium and sprayed using finely distributing nozzles
(§2) The respective components A and B and/or C were formulated as 10% by weight strength emulsion concentrate and introduced to the spray liquor with the amount of solvent system used for applying the active compound. In the examples, the solvent used was water.
(§3) The test period extended over 21 days. During this time, the plants were tended, and their response to the treatments with active compound was evaluated.
(§4) The evaluation for the damage caused by the chemical compositions was carried out using a scale from 0 to 100%, compared to the untreated control plants. Here, 0 means no damage and 100 means complete destruction of the plants.
(§5) In the examples below, the value E which is to be expected if the activity of the individual compounds is just additive was calculated using the method of S. R. Colby (1967) “Calculating synergistic and antagonistic responses of herbicide combinations”, Weeds 15, p. 22 ff. E=X+Y−([…]) where • X=effect in percent using active compound A at an application rate a; • Y=effect in percent using active compound B at an application rate b; • E=expected effect (in %) of A+B at application rates a+b.
(§6) If the observed effect is higher than the value E calculated according to Colby, a synergistic effect is present.

AVEFA = assay: Greenhouse post-emergence herbicidal action against AVEFA; assay type: in vivo, Avena fatua
Text: as §1, §2, §3, §4, §5, §6

POLPE = assay: Greenhouse post-emergence herbicidal action against POLPE; assay type: in vivo, Polygonum persicaria; settings: 21 days
Text: as §1, §2, §3, §4, §5, §6

ABUTH = assay: Greenhouse post-emergence herbicidal action against ABUTH; assay type: in vivo, Abutilon theophrasti; settings: 21 days
Text: as §1, §2, §3, §4, §5, §6

GALAP = assay: Greenhouse post-emergence herbicidal action against GALAP; assay type: in vivo, Galium aparine; settings: 21 days
Text: as §1, §2, §3, §4, §5, §6

AMARE = assay: Greenhouse post-emergence herbicidal action against AMARE; assay type: in vivo, Amaranthus retroflexus
Text: as §1, §2, §3, §4, §5, §6

BRAPL = assay: Greenhouse post-emergence herbicidal action against BRAPL; assay type: in vivo, Brachiaria plantaginea; settings: 21 days
Text: as §1, §2, §3, §4, §5, §6

ECHCG = assay: Greenhouse post-emergence herbicidal action against ECHCG; assay type: in vivo, Echinochloa crus-galli; settings: 21 days
Text: as §1, §2, §3, §4, §5, §6

COMBE = assay: Greenhouse post-emergence herbicidal action against COMBE; assay type: in vivo, Commelina benghalensis; settings: 21 days
Text: as §1, §2, §3, §4, §5, §6

POAPR = assay: Pre-emergence herbicidal action against POAPR; assay type: in vivo, Poa pratensis; settings: 21 days
Protocol: as §4
(§7) In the examples below, the mixtures were applied by the pre-emergence method. To this end, the test plants were initially sown and covered with a thin layer of soil. Afterward (i.e. prior to the germination of the test plants), the mixtures according to the invention were sprayed onto the soil as an aqueous spray liquor at the stated application rate. As in the post-emergence method described above, the test period was 21 days. The damage was then evaluated as described above using a scale from 0 to 100% damage in comparison to untreated control plants (0% damage).
(§8) A safener action is present if the damage to the crop plant caused by using a mixture according to the invention which contains a safener C) is less than the damage caused when active compound A or active compounds A and B are used without safener.

TRFPR = assay: Pre-emergence herbicidal action against TRFPR; assay type: in vivo, Trifolium pratense; settings: 21 days
Protocol: as §4, §7, §8

TRZAW = assay: Pre-emergence safener action (crop damage) in TRZAW; assay type: in vivo, Triticum aestivum (Winter wheat); settings: 21 days
Protocol: as §4, §7, §8

ALOMY = assay: Greenhouse post-emergence herbicidal action against ALOMY; assay type: in vivo, Alopecurus myosuroides; settings: 21 days
Text: as §1, §2, §3, §4, §5, §6

[1] = I.1 0.49 g/ha and/or b14.1 7.81 g/ha
[2] = I.1 0.98 g/ha and/or b14.1 15.63 g/ha
[3] = I.1 1.95 g/ha and/or b10.1 125 g/ha
[4] = I.1 3.91 g/ha and/or b10.1 250 g/ha
[5] = application rate g/ha: I.7 1.95, b13.1 500
[6] = application rate g/ha: I.7 3.91, b13.1 1000
[7] = application rate g/ha: I.7 1.95, b3.2 62.5
[8] = application rate g/ha: I.7 3.91, b3.2 125
[9] = I.7 200 g/ha and/or c.1 200 g/ha
[10] = I.7 400 g/ha and/or c.1 400 g/ha
[11] = application rate g/ha: I.8 0.98, b5.1 7.81
[12] = application rate g/ha: I.8 1.95, b5.1 15.63
[13] = I.8 200 g/ha and/or c.1 200 g/ha
[14] = I.8 400 g/ha and/or c.1 400 g/ha

## CN(C)S(=O)(=O)NC(=O)c1cc(-n2c(=O)cc(C(F)(F)F)n(C)c2=O)c(F)cc1Cl [I.1]
BIDPI; [1]
  Herbicidal action against BIDPI found: 20%
BIDPI; [2]
  Herbicidal action against BIDPI found: 30%
BIDPI; [3]
  Herbicidal action against BIDPI found: 40%
BIDPI; [4]
  Herbicidal action against BIDPI found: 50%
AVEFA; 21 days, application rate g/ha: I.1 0.98, b9.1 125
  Herbicidal action against AVEFA found: 5%
AVEFA; 21 days, application rate g/ha: I.1 1.95, b9.1 250
  Herbicidal action against AVEFA found: 10%
AVEFA; [3]
  Herbicidal action against AVEFA found: 10%
AVEFA; [4]
  Herbicidal action against AVEFA found: 10%
POLPE; application rate g/ha: I.1 0.49, b4.1 0.98
  Herbicidal action against POLPE found: 10%
POLPE; application rate g/ha: I.1 0.98, b4.1 1.95
  Herbicidal action against POLPE found: 25%
ABUTH; application rate g/ha: I.1 1.95, b1.2 31.25
  Herbicidal action against ABUTH found: 20%
ABUTH; application rate g/ha: I.1 3.91, b1.2 62.5
  Herbicidal action against ABUTH found: 30%
GALAP; application rate g/ha: I.1 1.95, b1.1 62.5
  Herbicidal action against GALAP found: 20%
GALAP; application rate g/ha: I.1 1.95, b1.3 + c.1 62.5 + 67.5
  Herbicidal action against GALAP found: 50%
GALAP; application rate g/ha: I.1 3.91, b1.1 125
  Herbicidal action against GALAP found: 20%
GALAP; application rate g/ha: I.1 3.91, b1.3 + c.1 125 + 135.9
  Herbicidal action against GALAP found: 60%
AMARE; [1]
  Herbicidal action against AMARE found: 60%
AMARE; [2]
  Herbicidal action against AMARE found: 60%

## CC(C)N(C)S(=O)(=O)NC(=O)c1cc(-n2c(=O)cc(C(F)(F)F)n(C)c2=O)c(F)cc1Cl [I.7]
AVEFA; 21 days, application rate g/ha: I.7 1.95, b3.1 62.5
  Herbicidal action against AVEFA found: 10%
AVEFA; 21 days, application rate g/ha: I.7 1.95, b6.1 125
  Herbicidal action against AVEFA found: 10%
AVEFA; 21 days, application rate g/ha: I.7 1.95, b7.1 250
  Herbicidal action against AVEFA found: 10%
AVEFA; 21 days, application rate g/ha: I.7 3.91, b3.1 125
  Herbicidal action against AVEFA found: 15%
AVEFA; 21 days, application rate g/ha: I.7 3.91, b6.1 250
  Herbicidal action against AVEFA found: 15%
AVEFA; 21 days, application rate g/ha: I.7 3.91, b7.1 500
  Herbicidal action against AVEFA found: 15%
POLPE; application rate g/ha: I.7 1.95, b3.1 62.5
  Herbicidal action against POLPE found: 0%
POLPE; application rate g/ha: I.7 1.95, b7.1 250
  Herbicidal action against POLPE found: 0%
POLPE; [5]
  Herbicidal action against POLPE found: 0%
POLPE; application rate g/ha: I.7 3.91, b3.1 125
  Herbicidal action against POLPE found: 25%
POLPE; application rate g/ha: I.7 3.91, b7.1 500
  Herbicidal action against POLPE found: 25%
POLPE; [6]
  Herbicidal action against POLPE found: 25%
BRAPL; [7]
  Herbicidal action against BRAPL found: 40%
BRAPL; [8]
  Herbicidal action against BRAPL found: 60%
ECHCG; [7]
  Herbicidal action against ECHCG found: 0%
ECHCG; [8]
  Herbicidal action against ECHCG found: 30%
ABUTH; application rate g/ha: I.7 0.98, b3.3 31.25
  Herbicidal action against ABUTH found: 0%
ABUTH; application rate g/ha: I.7 0.98, b3.4 31.25
  Herbicidal action against ABUTH found: 0%
ABUTH; application rate g/ha: I.7 1.95, b3.3 62.5
  Herbicidal action against ABUTH found: 30%
ABUTH; application rate g/ha: I.7 1.95, b3.4 62.5
  Herbicidal action against ABUTH found: 30%
COMBE; [5]
  Herbicidal action against COMBE found: 0%
COMBE; [6]
  Herbicidal action against COMBE found: 0%
POAPR; [9]
  Herbicidal action against POAPR: 98%
POAPR; [10]
  Herbicidal action against POAPR: 98%
TRFPR; [9]
  Herbicidal action against TRFPR: 100%
TRFPR; [10]
  Herbicidal action against TRFPR: 100%
TRZAW; [9]
  Damage to crop plant TRZAW: 10%
TRZAW; [10]
  Damage to crop plant TRZAW: 35%

## CC(C)N(C)S(=O)(=O)NC(=O)c1cc(-n2c(=O)cc(C(F)(F)F)n(N)c2=O)c(F)cc1Cl [I.8]
ALOMY; application rate g/ha: I.8 0.49, b2.1 7.81
  Herbicidal action against ALOMY found: 5%
ALOMY; application rate g/ha: I.8 0.98, b2.1 15.63
  Herbicidal action against ALOMY found: 10%
BIDPI; 21 days, application rate g/ha: I.8 0.49, b2.2 7.81
  Herbicidal action against BIDPI found: 10%
BIDPI; 21 days, application rate g/ha: I.8 0.98, b2.2 15.63
  Herbicidal action against BIDPI found: 20%
POLPE; [11]
  Herbicidal action against POLPE found: 10%
POLPE; [12]
  Herbicidal action against POLPE found: 20%
BRAPL; [11]
  Herbicidal action against BRAPL found: 30%
BRAPL; [12]
  Herbicidal action against BRAPL found: 40%
ECHCG; application rate g/ha: I.8 1.95, b5.2 31.25
  Herbicidal action against ECHCG found: 20%
ECHCG; application rate g/ha: I.8 3.91, b5.2 62.5
  Herbicidal action against ECHCG found: 40%
POAPR; [13]
  Herbicidal action against POAPR: 98%
POAPR; [14]
  Herbicidal action against POAPR: 100%
TRFPR; [13]
  Herbicidal action against TRFPR: 100%
TRFPR; [14]
  Herbicidal action against TRFPR: 100%
TRZAW; [13]
  Damage to crop plant TRZAW: 30%
TRZAW; [14]
  Damage to crop plant TRZAW: 65%
